# Reference: patent US5371102A, “Compositions and methods of inhibiting thyroid activity” (priority 1993, dated 1994)
# “Also recorded” adds a separate entry of the source. Read-outs that look alike come from different tables or passages of the source.
# Columns and labels:
# TPX [1] = target: T1, TPX (Sus scrofa, UniProt P09933); assay: TPX-catalyzed iodide oxidation (triiodide formation), spectrophotometric; assay type: biochemical, hog; settings: TPX, H2O2 and I-
# T1 sequence (P09933 15-926): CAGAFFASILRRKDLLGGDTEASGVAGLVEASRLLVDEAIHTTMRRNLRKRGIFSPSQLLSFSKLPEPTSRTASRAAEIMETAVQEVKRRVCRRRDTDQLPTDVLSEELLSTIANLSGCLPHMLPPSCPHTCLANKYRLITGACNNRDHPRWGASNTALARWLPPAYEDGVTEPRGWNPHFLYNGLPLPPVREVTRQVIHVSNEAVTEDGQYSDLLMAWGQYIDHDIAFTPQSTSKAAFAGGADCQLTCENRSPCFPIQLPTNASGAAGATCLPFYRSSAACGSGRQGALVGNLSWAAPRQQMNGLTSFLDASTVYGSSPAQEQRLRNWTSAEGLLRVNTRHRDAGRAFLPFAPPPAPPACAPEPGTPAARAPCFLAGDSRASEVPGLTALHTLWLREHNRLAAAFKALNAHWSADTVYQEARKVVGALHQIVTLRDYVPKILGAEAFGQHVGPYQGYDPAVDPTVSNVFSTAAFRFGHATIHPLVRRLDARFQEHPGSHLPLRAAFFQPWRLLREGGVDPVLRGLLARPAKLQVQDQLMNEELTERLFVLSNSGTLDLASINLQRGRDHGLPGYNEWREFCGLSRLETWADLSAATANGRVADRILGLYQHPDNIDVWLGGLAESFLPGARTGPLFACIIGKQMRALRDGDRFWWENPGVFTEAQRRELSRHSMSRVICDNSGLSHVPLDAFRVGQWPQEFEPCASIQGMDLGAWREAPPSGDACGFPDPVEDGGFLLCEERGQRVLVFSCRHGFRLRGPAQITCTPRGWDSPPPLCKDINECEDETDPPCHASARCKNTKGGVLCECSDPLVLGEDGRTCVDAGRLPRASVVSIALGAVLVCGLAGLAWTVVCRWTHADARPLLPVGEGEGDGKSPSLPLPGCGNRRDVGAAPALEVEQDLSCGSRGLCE
# Source text: (§1) Materials used in the examples below were obtained from the following sources. Bovine LPX, bovine liver catalase, glucose oxidase, 30% hydrogen peroxide, glucose, guaiacol, ABTS and deuterium oxide were purchased from Sigma Chemical Company. Selenium dioxide, MBI ^13 CH3 I and PBA were purchased from Aldrich Chemical Company and PBA was purified as previously described by Fieset et al., Reagents for Organic Synthesis, Vol. I, pp.135-139, John Wiley and Sons, N.Y. (1967). LPX purity was checked by PAGE, as described by Doerge, D.R., et al. in, Biochem. Pharmacol., Vol.36, pp.972-974 (1986). TPX was purified from hog thyroids obtained from a local slaughterhouse by published procedures. Doerge & Takazowa, Chemical Research in Toxicology, Vol. 3, pp. 98-101 (1990). TPX purity was determined by LC and its concentration determined spectophotometrically. Hydroperoxide concentrations were determined by iodometric titration, as described by Kolthoff, et al., in "Quantitative Chemical Analysis", Macmillan, London, pp.842-860 (1969). MMBI, and BI were synthesized by published procedures as described by Doerge, D.R., Biochem, Vol. 27, pp. 3697-3700 (1988) and were recrystallized from aqueous ethanol. MeBI was purified by distillation and DMeBI^+ was synthesized and purified by recrystallization from ethyl acetate/methanol. 1-^13 C-MMBI was synthesized from ^13 CH3 I according to the procedure disclosed by Doerge, D.R., in, J. Lab. Comp. and Radiopharm., Vol.25, pp.985-990 (1988). PPHP and PPA were prepared, purified and analyzed as previously described by Doerge, Biochem, Vol.27, p.11 (1988). The methyl ester of 1-methyl-benzimidazole-2-sulfinic acid was prepared by addition of hydrogen peroxide (5 equivalents of a 10 M solution) to MMBI (0.1 M) in methanol. The products, MeBI and the ester, were obtained following preparative TLC on silica (Uniplate, Analtech Co., Newark, DL) using 5% methanol/chloroform as eluant. […]
# 1,3-diacetyl MBI (AczMBI) was synthesized according to the method published by Doerge et al., Syn. […] Varying quantities of Ac2 MBI were incubated with TPX, H2 O2, and I^-. […]
# LPX and TPX [2] = assay: suicide inhibition of peroxidases (summary statements); assay type: biochemical; settings: for suicide inhibition: summary of own examples
# LPX [3] = settings: cited from earlier work
# TPX [4] = settings: cited from earlier work
# [5] = chemical oxidation stoichiometry of thiones; assay type: physicochemical; settings: for moles of oxidant required for total reaction: PBA, FIG. 4
# Protocol: Oxidation stoichiometries were determined for the thione compounds MBI, MMBI and DMMBI by incubating the thiones with varying amounts of PBA (0-250μM). The rapid reaction (t1/2 <10 s at 25° C.) of benzimidazole-2-thiones with PBA in methanol provided a convenient method for determining oxidation stoichiometry.
# (§2) Oxidation stoichiometries were determined spectrophoto, metrically, using a Hewlett Packard 8452A diode array spectrophotometer, by measuring thione concentration at 305 nm as a function of PBA concentration. Hydroperoxide content was determined iodometrically. Stoichiometries of substrate consumption/product formation were also determined by addition of limiting amounts of PBA to 100 μM MBI or MMBI in 50% methanol/pH 7 phosphate. The disappearance of thione and the production of BI, MeBI and bisulfite ion was determined after one hour at 25° C. The production of bisulfite ion was measured […]. The production of sulfate ion was determined by ion chromatography using a AS4A column (Dionex Co., Sunnyvale, CA) with a Dionex Gradient Pump Module and a Dionex CDM II conductivity detector equipped with an AMMS suppressor using 3 mM carbonate/bicarbonate buffer pH 10 as eluant at 2.0 ml/min. Reaction products were also monitored by ^1 H NMR performed at 300 MHz using a Nicolet NT300 or General Electric QE300 spectrometer DSS as a reference.
# TPX [6] = target: T1, TPX; assay: covalent binding to TPX in the presence of H2O2; set-up: species or system hog
# Source text: as §1, with “MeBI was purified by distillation and DMeBI^+ was synthesized and purified by recrystallization from ethyl acetate/methanol. 1-^13 C-MMBI was synthesized from ^13 CH3 I according to the procedure disclosed by Doerge, D.R., in, J. Lab. Comp. and Radiopharm., Vol.25, pp.985-990 (1988).” left out, “(1988).” for “(1988). The methyl ester of 1-methyl-benzimidazole-2-sulfinic acid was prepared by addition of hydrogen peroxide (5 equivalents of a 10 M solution) to MMBI (0.1 M) in methanol. The products, MeBI and the ester, were obtained following preparative TLC on silica (Uniplate, Analtech Co., Newark, DL) using 5% methanol/chloroform as eluant.”
# LPX [7] = target: T2, LPX (Bos taurus, UniProt P80025); assay: LPX suicide inactivation kinetics; assay type: biochemical, bovine
# T2 construct: purchased Sigma Chemical Company
# Source text: (§3) Materials used in the examples below were obtained from the following sources. Bovine LPX, bovine liver catalase, glucose oxidase, 30% hydrogen peroxide, glucose, guaiacol, ABTS and deuterium oxide were purchased from Sigma Chemical Company. Selenium dioxide, MBI ^13 CH3 I and PBA were purchased from Aldrich Chemical Company and PBA was purified as previously described by Fieset et al., Reagents for Organic Synthesis, Vol. I, pp.135-139, John Wiley and Sons, N.Y. (1967). LPX purity was checked by PAGE, as described by Doerge, D.R., et al. in, Biochem. Pharmacol., Vol.36, pp.972-974 (1986). TPX was purified from hog thyroids obtained from a local slaughterhouse by published procedures. Doerge & Takazowa, Chemical Research in Toxicology, Vol. 3, pp. 98-101 (1990). TPX purity was determined by LC and its concentration determined spectophotometrically. Hydroperoxide concentrations were determined by iodometric titration, as described by Kolthoff, et al., in "Quantitative Chemical Analysis", Macmillan, London, pp.842-860 (1969). MMBI, and BI were synthesized by published procedures as described by Doerge, D.R., Biochem, Vol. 27, pp. 3697-3700 (1988) and were recrystallized from aqueous ethanol. MeBI was purified by distillation and DMeBI^+ was synthesized and purified by recrystallization from ethyl acetate/methanol. 1-^13 C-MMBI was synthesized from ^13 CH3 I according to the procedure disclosed by Doerge, D.R., in, J. Lab. Comp. and Radiopharm., Vol.25, pp.985-990 (1988). PPHP and PPA were prepared, purified and analyzed as previously described by Doerge, Biochem, Vol.27, p.11 (1988). The methyl ester of 1-methyl-benzimidazole-2-sulfinic acid was prepared by addition of hydrogen peroxide (5 equivalents of a 10 M solution) to MMBI (0.1 M) in methanol. The products, MeBI and the ester, were obtained following preparative TLC on silica (Uniplate, Analtech Co., Newark, DL) using 5% methanol/chloroform as eluant.
# Inhibition of LPX activity by thiones was determined from the kinetics of iodide ion, guaiacol or ABTS oxidation assays conducted at 25° C. Kinetic parameters of suicide inactivation were determined as previously described. Doerge, Biochem. Vol.27, pp.3697-3700 (1988).
# [8] = kinetics of thione oxygenation by hydrogen peroxide/TFA; assay type: physicochemical; settings: thione 25 μM, H2O2 34 mM, TFA 163 mM in methanol, 25° C.; relative to DMMBI
# Protocol: The kinetics of thione oxygenation were determined for MBI, MMBI and DMMBI. Oxygenation by hydrogen peroxide/TFA was measured spectrophotometrically (305 nm) at 25° C. by addition of thione (final concentration 25 μM) to hydrogen peroxide (34 mM) and TFA (163 mM) in methanol.
# [9] = thione reaction with PBA in aqueous buffered methanol, product ratios; assay type: physicochemical; settings: thione 100 μM, PBA 0-200 μM
# Protocol: as §2
# The reaction of MBI and MMBI with PBA was also examined in aqueous buffered methanol. Thione (100 μM) was incubated with varying concentrations of PBA (0-200 μM). Reactant and product quantities were determined by LC as described in example 1. The ratios of product formation to thione consumption were calculated, and are reported below in Table 1. The values are averages of two slope determinations, i.e., moles of product formed or reactant consumed vs. moles of oxidant added, each determined from at least five data points.
# LPX [10] = target: T2, LPX; assay: LPX-mediated covalent binding of labelled thiocarbamides to LPX; set-up: species or system bovine; settings: +H2O2 vs. +H2O2 +KI; 14C- and 35S-labelled
# Source text: as §3
# LPX-mediated covalent binding of ^14 C- and ^35 S-labelled thiocarbamides to LPX under iodide-dependent and -independent conditions was measured.
# TPX [11] = target: T1, TPX; assay: TPX inactivation; assay type: biochemical, hog; settings: presence of hydrogen peroxide
# Source text: as §3
# DMMBI was synthesized according to a published method. Duffin et al., J. Chem. Soc., Part II, pp.364-365 (1956). Samples including TPX, H2 O2, and I^- were incubated with and without DMMBI. Triiodide formation was observed spectrophotometrically with respect to time.
# LPX and TPX [12] = settings: currently used drugs, background; cited from earlier work
# [13] = cited from earlier work
smiles,measurement,setting,value
"CC(=O)n1c(=S)n(C(C)=O)c2ccccc21 [Ac2 MBI, 1,3-diacetylbenzimidazole-2-thione]",effect on triiodide formation,TPX [1],exhibits similar inhibition of triiodide formation as was observed with DMMBI
same,selectivity for iodide ion oxidation,LPX and TPX [2]; alternate substrate mechanism,block only reactions involving iodide ion oxidation
same,suicide inhibition,LPX and TPX [2],not suicide inhibitors
"S=C1NCCN1 [ETU, imidazolidine-2-thione]",inhibition of LPX-catalyzed iodination,LPX [3],inhibits TPX- and LPX-catalyzed iodination reactions
same,inhibition of TPX-catalyzed iodination,TPX [4],inhibits TPX- and LPX-catalyzed iodination reactions
"Sc1nc2ccccc2[nH]1 [MBI, benzimidazole-2-thione]",moles of oxidant required for total reaction,[5],two
same,covalent binding to TPX,TPX [6],bind covalently to LPX and TPX
same,partition ratio (LPX inactivation),LPX [7]; 25° C.,approximately 3
same,LPX inactivation / loss of LPX activity,LPX [7]; presence of hydrogen peroxide,"rapid, irreversible loss of LPX and TPX activity; also recorded: cause rapid, irreversible enzyme inactivation"
same,KI (inactivation),LPX [7]; read-out: Ki (LPX inactivation); 25° C.,0.1 nM
same,relative rate of oxygenation,[8],2.3
same,PBA/thione,[9],1.89
same,benzimidazole/thione,[9],0.89
same,bisulfite/thione,[9],0.72
same,covalent binding to LPX,LPX [10],become covalently bound to LPX
same,suicide inhibition,LPX and TPX [2],suicide inhibitors
same,TPX inactivation,TPX [11],"rapid, irreversible loss of LPX and TPX activity; also recorded: cause rapid, irreversible enzyme inactivation"
"Cn1c(S)nc2ccccc21 [MMBI, 1-methylbenzimidazole-2-thione]",moles of oxidant required for total reaction,[5],two
same,equivalents of hydroperoxide required per mole of thione,[5]; hydroperoxides,2 equivalents
same,covalent binding to TPX,TPX [6],bind covalently to LPX and TPX
same,partition ratio (LPX inactivation),LPX [7]; 25° C.,~35
same,KI (inactivation),LPX [7]; 25° C.; read-out: Ki (LPX inactivation),274 nM
same,LPX inactivation / loss of LPX activity,LPX [7]; presence of hydrogen peroxide,"rapid, irreversible loss of LPX and TPX activity; also recorded: cause rapid, irreversible enzyme inactivation"
same,relative rate of oxygenation,[8],1.3
same,PBA/thione,[9],1.98
same,benzimidazole/thione,[9],0.87
same,bisulfite/thione,[9],0.72
same,covalent binding to LPX,LPX [10],become covalently bound to LPX
same,suicide inhibition,LPX and TPX [2],suicide inhibitors
same,TPX inactivation,TPX [11],"rapid, irreversible loss of LPX and TPX activity; also recorded: cause rapid, irreversible enzyme inactivation"
"Cn1cc[nH]c1=S [MMI, 1-methylimidazole-2-thione]",suicide inhibition,LPX and TPX [12],suicide inhibitors
"CCOC(=O)n1ccn(C)c1=S [carbimazole, 1-carboxyethyl-3-methylimidazole-2-thione]",in vivo stability / conversion,[13],labile in vivo and is rapidly converted to methimazole
CCCc1cc(=O)[nH]c(=S)[nH]1 [propylthiouracil],suicide inhibition,LPX and TPX [12],suicide inhibitors
